Experimental data reported in US20030166598A1, “Medicines for treating tumoral pathologies containing the ro5-4864 compound and an apoptosis-inducing agent” (priority 2000, published 2003).

Key:
[1] = tested on: SHEP-control (neuroblastoma transfected with a control vector); assay: Cell viability (methylene blue test) with CH11 anti-FasR antibody, SHEP-control line; format: cell-based, human
Experimental: (§1) The human lines Jurkat (lymphoid T), SHEP (neuroblastoma) transfected with a control vector or with a bcl-2 or bcl-XL vector, 143N2 (osteosarcoma) and SNB79 (glioblastoma) were cultured in DMEM or RPMI 1640 (Sigma Chemical Co., St Louis, Mo.) supplemented with FCS 10% (Dutscher, Brumath, France), penicillin G (10^2 IU/mI)+streptomycin (50 μg/ml) (Sigma) and L-glutamine ([…], Sigma).
(§2) The cells were cultured in the presence of anti-Fas receptor antibody CH11 (1 μg/ml; Immunotech, Marseilles, France) concomitantly or after exposure to RO5-4864 (BioBlock Scientific, Illkirch, France), diazepam (Roche, Neuilly sur Seine, France), or PK11195 (BioBlock), at various concentrations.
(§3) Cell viability was measured by testing with methylene blue (Dimanche-Boitrel et al., 1992).
(§4) 2. FIG. 2: culture of the SHEP control lines (SHEP.control), of SHEP lines transfected with bcl2 (SHEP.Bcl2), and of SHEP lines transfected with bclXL (SHEP.BClXL), in the presence of CH11 with (black histograms) or without (grey histograms) RO5-4864. Evaluation of cell viability (test with methylene blue; percentage of cells on ordinate), as a function of the concentration of RO5-4864 (0, 100 μM or RO100, 200 μM or RO 200).

SHEP bcl-XL = assay: Cell viability (methylene blue test) with CH11 anti-FasR antibody, SHEP bcl-XL line; format: cell-based, human
Experimental: as §1, §2, §3, §4

Jurkat (lymphoid T) = assay: Quantification of apoptosis in Jurkat cells cultured with anti-Fas receptor antibody CH11 and PBR ligands; format: cell-based, human; settings: for potentiation of the apoptotic effect of the CH11 anti-FasR antibody: FIGS. 1A and 1B; for proportion of subdiploid (apoptotic) cells: ligand at 60 μM in combination with CH11 anti-FasR antibody
Experimental: as §1, §2
Lipophilic fluorochrome DiOC6(3) (Molecular Probes, Eugene, Oreg.) was used for measuring the membrane potential of the mitochondria (Δψm). Briefly, the cells were incubated for 15 min at 37° C. in the presence of 40 nM of DiOC6(3), with immediate analysis of the incorporation of fluorescence on a type Epics Profile II cytofluorometer (Coulter, Miami, Fla.). Hydroethydine (HE) (2 μM, 15 min at 37° C., Molecular Probes) was used for measuring the production of superoxide anion (Marchetti et al., 1996). Finally, the proportion of cells that had lost part of the chromosomal DNA (subdiploid cells) was determined with propidium iodide on cells fixed in ethanol (Nicoletti et al., 1991).
1. FIG. 1: culture of Jurkat cells in the presence of CH11 with (white histograms) or without (black histograms) RO5-4864, PK11195 or diazepam.

SNB79 (glioblastoma) = assay: Cell viability (methylene blue test) with CH11 anti-FasR antibody, SNB79 line; format: cell-based, human
Experimental: as §1, §2, §3
4. FIG. 4: culture of the SNB79 line in the presence of CH11 with (•) or without (o) RO5-4864. Evaluation of cell viability (test with methylene blue; percentage of cells on the ordinate), as a function of the concentration (μM) of Ro5-4864.

143N2 (osteosarcoma) = assay: Cell viability (methylene blue test) with CH11 anti-FasR antibody, 143N2 line; format: cell-based, human
Experimental: as §1, §2, §3
3. FIG. 3: culture of the 143N2 line in the presence of CH11 with (black histograms) or without (grey histograms) RO5-4864, PK11195 or diazepam. Evaluation of cell viability (test with methylene blue; percentage of cells on ordinate), as a function of the concentration of RO5-4864 (100 μM or RO 100, 200 μM or RO 200), PK11195 (50 μM or PK50, 80 μM or PK 80) and DIAZEPAM (50 μM or DIA50, 80 μM or DIA80).

SHEP-bcl-2 = assay: Cell viability (methylene blue test) with CH11 anti-FasR antibody, SHEP-bcl-2 line; format: cell-based, human
Experimental: as §1, §2, §3, §4

[2] = tested on: SCLC61 small-cell bronchial carcinoma; assay: SCLC61 human tumour xenotransplanted in nude mice, tumour growth; format: in vivo, mouse
[3] = tested on: SCLC6 small-cell bronchial carcinoma; assay: SCLC6 human tumour xenotransplanted in nude mice, tumour growth; format: in vivo, mouse; settings: etoposide 12 mg/kg/day + ifosfamide 90 mg/kg/day D1 to D3 + RO5-4864 40 mg/kg/day D1 to D3, p<0.05

Row | Compound | reversal of resistance to the CH11 anti-FasR antibody [1] | reversal of resistance to the CH11 anti-FasR antibody (SHEP bcl-XL) | potentiation of the apoptotic effect of the CH11 anti-FasR antibody (Jurkat (lymphoid T)) | proportion of subdiploid (apoptotic) cells (Jurkat (lymphoid T)) [%] | reversal of resistance to the CH11 anti-FasR antibody (SNB79 (glioblastoma)) | reversal of resistance to the CH11 anti-FasR antibody (143N2 (osteosarcoma)) | reversal of resistance to the CH11 anti-FasR antibody (SHEP-bcl-2) | tumour growth ([2]; RO5-4864 alone, 12 mg/kg/day s.c. D1 to D3) | antitumour effect of etoposide with concomitant RO5-4864 ([2]; etoposide 12 mg/kg/day i.p. D1 to D3 + RO5-4864 12 mg/kg/day s.c. D1 to D3, p<0.005) | antitumour effect of the chemotherapy with RO5-4864 [3]
1 | CCC(C)N(C)C(=O)c1cc2ccccc2c(-c2ccccc2Cl)n1 (stereo not drawn) [PK11195] | observed | only observed with diazepam and PK11195 on the line SHEP-control | potentiate the apoptotic effect | 25 | only observed with diazepam and PK11195 on the line SHEP-control | only observed with diazepam and PK11195 on the line SHEP-control | only observed with diazepam and PK11195 on the line SHEP-control |  |  | 
2 | CN1C(=O)CN=C(c2ccc(Cl)cc2)c2cc(Cl)ccc21 [RO5-4864, 4′-chlorodiazepam] | reverses the resistance | reverses the resistance | potentiate the apoptotic effect | 73 | reverses the resistance | reverses the resistance | reverses the resistance | not altered | increased | increased
3 | CN1C(=O)CN=C(c2ccccc2)c2cc(Cl)ccc21 [diazepam] | observed | only observed with diazepam and PK11195 on the line SHEP-control | potentiate the apoptotic effect | 20 | only observed with diazepam and PK11195 on the line SHEP-control | only observed with diazepam and PK11195 on the line SHEP-control | only observed with diazepam and PK11195 on the line SHEP-control |  |  | 
